This note sets out measurements from ChEMBL document CHEMBL1144985, “Rational design, synthesis and structure-activity relationships of a cyclic succinate series of TNF-alpha converting enzyme inhibitors. Part 2: lead optimization” (Bioorg Med Chem Lett, 2003).

In test [1] the target is T1, Interstitial collagenase (Homo sapiens, UniProt P03956).
T1 sequence (P03956 whole entry): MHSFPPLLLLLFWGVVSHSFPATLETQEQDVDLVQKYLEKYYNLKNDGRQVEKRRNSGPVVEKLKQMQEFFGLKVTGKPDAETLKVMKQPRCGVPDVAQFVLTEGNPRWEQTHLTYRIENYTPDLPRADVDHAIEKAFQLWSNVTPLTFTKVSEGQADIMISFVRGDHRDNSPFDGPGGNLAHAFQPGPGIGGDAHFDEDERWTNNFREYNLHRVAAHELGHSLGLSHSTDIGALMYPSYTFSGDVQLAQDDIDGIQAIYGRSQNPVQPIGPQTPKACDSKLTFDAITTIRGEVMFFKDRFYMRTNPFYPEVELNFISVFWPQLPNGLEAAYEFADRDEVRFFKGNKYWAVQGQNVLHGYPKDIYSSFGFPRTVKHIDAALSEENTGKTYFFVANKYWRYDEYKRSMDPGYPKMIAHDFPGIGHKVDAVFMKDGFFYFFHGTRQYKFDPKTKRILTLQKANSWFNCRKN
Description: Inhibitory activity against matrix metalloprotease-1 (MMP-1).

Test [2] concerns the target Disintegrin and metalloproteinase domain-containing protein 17 (Sus scrofa, UniProt O77636). Description: In vitro binding affinity against porcine TACE.
The target of test [3] is 72 kDa type IV collagenase (Homo sapiens, UniProt P08253). Description: Inhibitory activity against matrix metalloprotease-2 (MMP-2).
The target of test [4] is Matrix metalloproteinase-9 (Homo sapiens, UniProt P14780). Description: Inhibitory activity against matrix metalloprotease-9 (MMP-9).
Test [5] is filed under the species Homo sapiens. The experiment in a line: In vitro inhibition of TNF-alpha production was determined by using LPS-stimulated human whole blood assay (WBA). The class given is functional.

Molecules are shown by their SMILES.

Chain of 72 kDa type IV collagenase (P08253 whole entry): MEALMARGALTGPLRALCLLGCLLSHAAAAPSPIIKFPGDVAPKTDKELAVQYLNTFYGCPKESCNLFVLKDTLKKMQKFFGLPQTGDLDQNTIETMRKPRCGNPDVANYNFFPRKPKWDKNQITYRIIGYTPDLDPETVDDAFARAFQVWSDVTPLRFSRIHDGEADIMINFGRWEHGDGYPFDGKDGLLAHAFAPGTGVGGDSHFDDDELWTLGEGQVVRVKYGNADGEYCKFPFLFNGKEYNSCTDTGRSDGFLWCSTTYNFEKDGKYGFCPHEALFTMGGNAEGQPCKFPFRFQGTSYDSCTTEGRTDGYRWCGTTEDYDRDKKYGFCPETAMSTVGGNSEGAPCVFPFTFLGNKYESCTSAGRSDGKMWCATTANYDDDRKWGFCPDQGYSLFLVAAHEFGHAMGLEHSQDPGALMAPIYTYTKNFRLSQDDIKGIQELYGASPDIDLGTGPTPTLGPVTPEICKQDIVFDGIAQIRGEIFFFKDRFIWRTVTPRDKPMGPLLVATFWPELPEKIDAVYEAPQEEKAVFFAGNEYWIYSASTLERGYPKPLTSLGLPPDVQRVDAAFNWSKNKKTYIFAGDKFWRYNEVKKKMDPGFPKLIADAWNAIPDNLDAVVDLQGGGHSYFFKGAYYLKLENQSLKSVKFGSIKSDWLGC
Chain of Disintegrin and metalloproteinase domain-containing protein 17 (O77636 whole entry, the tested form may be a part): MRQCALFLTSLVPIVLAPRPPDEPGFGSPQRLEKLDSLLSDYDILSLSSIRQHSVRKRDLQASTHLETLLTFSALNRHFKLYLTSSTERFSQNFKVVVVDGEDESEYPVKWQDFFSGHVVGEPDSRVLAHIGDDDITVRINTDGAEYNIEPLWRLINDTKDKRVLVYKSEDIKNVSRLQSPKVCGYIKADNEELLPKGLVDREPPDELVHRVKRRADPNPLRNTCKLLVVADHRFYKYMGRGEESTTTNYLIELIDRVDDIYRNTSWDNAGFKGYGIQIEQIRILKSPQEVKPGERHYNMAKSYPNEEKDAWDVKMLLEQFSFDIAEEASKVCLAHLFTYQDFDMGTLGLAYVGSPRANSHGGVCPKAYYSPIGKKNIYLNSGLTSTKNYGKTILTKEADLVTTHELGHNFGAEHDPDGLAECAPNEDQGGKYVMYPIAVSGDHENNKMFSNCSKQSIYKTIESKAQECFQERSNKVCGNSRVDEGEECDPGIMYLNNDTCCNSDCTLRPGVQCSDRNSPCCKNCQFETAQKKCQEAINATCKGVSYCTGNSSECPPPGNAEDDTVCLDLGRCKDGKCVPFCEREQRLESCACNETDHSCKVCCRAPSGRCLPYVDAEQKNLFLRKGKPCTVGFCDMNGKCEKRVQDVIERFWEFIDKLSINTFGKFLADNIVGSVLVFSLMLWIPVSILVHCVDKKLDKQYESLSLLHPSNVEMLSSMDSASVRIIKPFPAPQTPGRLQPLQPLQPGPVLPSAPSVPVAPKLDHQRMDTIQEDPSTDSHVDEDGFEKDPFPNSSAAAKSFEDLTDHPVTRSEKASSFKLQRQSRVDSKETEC
Chain of Matrix metalloproteinase-9 (P14780 whole entry): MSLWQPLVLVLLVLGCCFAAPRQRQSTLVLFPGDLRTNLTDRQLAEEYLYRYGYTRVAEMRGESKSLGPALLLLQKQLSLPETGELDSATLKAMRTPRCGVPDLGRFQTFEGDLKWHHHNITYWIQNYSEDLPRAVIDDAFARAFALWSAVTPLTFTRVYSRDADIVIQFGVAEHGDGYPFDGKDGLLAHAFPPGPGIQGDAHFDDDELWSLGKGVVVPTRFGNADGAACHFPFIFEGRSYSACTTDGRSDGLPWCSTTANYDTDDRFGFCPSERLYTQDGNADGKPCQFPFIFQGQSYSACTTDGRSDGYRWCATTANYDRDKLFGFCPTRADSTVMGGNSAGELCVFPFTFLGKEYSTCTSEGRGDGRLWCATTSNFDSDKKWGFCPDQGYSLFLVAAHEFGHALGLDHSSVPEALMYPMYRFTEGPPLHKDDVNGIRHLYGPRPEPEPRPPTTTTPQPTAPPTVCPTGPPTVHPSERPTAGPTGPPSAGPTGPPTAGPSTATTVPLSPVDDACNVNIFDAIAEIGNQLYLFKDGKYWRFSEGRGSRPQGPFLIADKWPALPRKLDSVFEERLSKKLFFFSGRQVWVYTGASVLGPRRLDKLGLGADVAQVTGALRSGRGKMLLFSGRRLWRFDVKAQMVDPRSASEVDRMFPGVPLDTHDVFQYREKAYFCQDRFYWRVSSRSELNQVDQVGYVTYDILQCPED

Regarding `CCCC(=O)N1CC[C@H](C(=O)Nc2ccc(OCc3cc(C)nc4ccccc34)cc2)[C@@H](C(=O)NO)C1`, the Ki (as a rule, a measure of affinity in units of concentration, obtained from inhibition or displacement) was more than 4.95 µM in test [1], more than 3.33 µM in test [3] and more than 2130 nM in test [4]. For the same compound, the IC50 (in general, the point on the concentration scale where inhibition reaches its midpoint) is 0.26 nM in test [2] and 330 nM in test [5].

`Cc1cc(COc2ccc(NC(=O)[C@@H]3[C@@H](C(=O)NO)CCCN3C)cc2)c2ccccc2n1`: the inhibition constant Ki is more than 4.95 µM in test [1], more than 3.33 µM in test [3] and more than 2130 nM in test [4]. The half-inhibitory concentration (IC50) came to 6.2 nM in test [2] and 20 nM in test [5].

For the compound `Cc1cc(COc2ccc(NC(=O)[C@@H]3[C@@H](C(=O)NO)CCCN3CC3CC3)cc2)c2ccccc2n1`, the Ki in test [1] was more than 4.95 µM; in test [3], more than 3.33 µM; in test [4], more than 2130 nM. In addition, the IC50 is 1 nM in test [2] and 400 nM in test [5].

Regarding `CC(=O)N1CC[C@H](C(=O)Nc2ccc(COc3ccnc4ccccc34)cc2)[C@@H](C(=O)NO)C1`, the inhibition constant Ki in test [1] was more than 4.95 µM; in test [3] it was more than 3.33 µM; in test [4] it was more than 2130 nM. Besides, the IC50 was found to be 1 nM in test [2] and 560 nM in test [5].

`Cc1cc(COc2ccc(NC(=O)[C@H]3CCN(C(=O)NC(C)(C)C)C[C@@H]3C(=O)NO)cc2)c2ccccc2n1`: the inhibition constant (Ki) in test [1] was more than 4.95 µM; in test [3], more than 3.33 µM; in test [4], more than 2130 nM. Also, the IC50 in test [2] is 0.41 nM; in test [5], 560 nM.

For the compound `O=C(NO)[C@H]1CCCC[C@@H]1C(=O)Nc1ccc(COc2ccnc3ccccc23)cc1`, the Ki in test [1] is more than 4.95 µM; in test [3] it was more than 3.33 µM; in test [4], more than 2130 nM. For the same compound, the IC50 in test [5] is more than 50000 nM.

In the case of `Cc1cc(COc2ccc(NC(=O)[C@H]3CCN(S(=O)(=O)c4cn(C)cn4)C[C@@H]3C(=O)NO)cc2)c2ccccc2n1`, the Ki is more than 4.95 µM in test [1], 1 µM in test [3] and 366 nM in test [4]. Also, the 50% inhibitory concentration (IC50) in test [2] was found to be 0.31 nM; in test [5], 1500 nM.

Turning to `Cc1cc(COc2ccc(NC(=O)[C@H]3CN(Cc4nccs4)CC[C@@H]3C(=O)NO)cc2)c2ccccc2n1`, the Ki in test [1] is more than 4.95 µM; in test [3], more than 3.33 µM; in test [4] it was more than 2130 nM. Besides, the IC50 came out at 0.8 nM in test [2] and 560 nM in test [5].

For `Cc1cc(COc2ccc(NC(=O)[C@H]3CCN(C(=O)OC4CC4)C[C@@H]3C(=O)NO)cc2)c2ccccc2n1`, the Ki in test [1] is more than 4.95 µM; in test [3], 0.642 µM; in test [4] it was 209 nM. The IC50 in test [2] stood at 0.83 nM; in test [5] it was 700 nM.

`O=C(NO)[C@H]1CN(C(=O)C2CC2)CC[C@@H]1C(=O)Nc1ccc(COc2ccnc3ccccc23)cc1`: the inhibition constant Ki in test [1] was more than 4.95 µM; in test [3], more than 3.33 µM; in test [4] it was more than 2130 nM. The 50% inhibitory concentration (IC50) amounted to 2 nM in test [2] and 710 nM in test [5].

For `Cc1cc(OCc2ccc(NC(=O)[C@H]3CCN(C(=O)c4ccco4)C[C@@H]3C(=O)NO)cc2)c2ccccc2n1`, the Ki in test [1] was more than 4.95 µM; in test [3], more than 3.33 µM; in test [4], more than 2130 nM. Moreover, the IC50 came to 3 nM in test [2] and 3400 nM in test [5].

With `Cc1cc(COc2ccc(NC(=O)[C@H]3CCN(C(=O)OC(C)C)C[C@@H]3C(=O)NO)cc2)c2ccccc2n1`, the Ki is more than 4.95 µM in test [1], 0.771 µM in test [3] and 252 nM in test [4]. For the same compound, the 50% inhibitory concentration (IC50) worked out at 0.44 nM in test [2] and 210 nM in test [5].

In the case of `Cc1cc(COc2ccc(NC(=O)[C@@H]3[C@@H](C(=O)NO)CCCN3Cc3nccs3)cc2)c2ccccc2n1`, the Ki in test [1] is more than 4.95 µM; in test [3] it was more than 3.33 µM; in test [4], more than 2130 nM. Besides, the IC50 in test [2] turned out to be 1 nM; in test [5] it was 1400 nM.

On to `Cc1cc(COc2ccc(NC(=O)[C@H]3CN(C)CC[C@@H]3C(=O)NO)cc2)c2ccccc2n1`, for which the Ki is more than 4.95 µM in test [1], more than 3.33 µM in test [3] and more than 2130 nM in test [4]. In addition, the IC50 was 5 nM in test [2] and 100 nM in test [5].
